This passage reports Ki results from patent publication US6221914A, “Sulfonamide bridging compounds that inhibit tryptase activity” (Array Biopharma Inc., priority 1998, dated 2001).

Assay type in all cases: biochemical
In experiment [1] the target is T1, Bovine Pancreatic Chymotrypsin (Bos taurus, UniProt P00766).
T1 construct: from tissue; host or cells: bovine pancreas
Nature of the experiment: Ki determination, bovine pancreatic chymotrypsin (N-Suc-Ala-Ala-Pro-Phe-pNA). Conditions: 100 mM Tris-HCl, pH 7.8, 10 mM CaCl2; read-out: Experimentally Determined Ki, Chymotrypsin. The method, boiled down:
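Enzyme was preincubated with test compound for 15 min at 37° C before N-Suc-Ala-Ala-Pro-Phe-pNA was added, in 100 mM Tris-HCl, pH 7.8, 10 mM CaCl2. p-Nitroaniline release was read at 405 nm. Ki came from the tight-binding equation with [E]o set by active-site titration and corrected for substrate, or from competitive-inhibitor equations when Ki >>[E]o.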

For experiment [2], the target named is Human lung tryptase. Put plainly: Ki determination, human lung tryptase (Tosyl-Gly-Pro-Arg-pNA substrate). The following applies: 50 mM Tris-HCl pH 8.0, 37° C., 1 nM tryptase, 320 μM GPR-pNA; read-out: Experimentally Determined Ki, Tryptase. Put shortly:
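Human lung tryptase (gel-filtration purified, active-site titrated), 1 nM final, preincubated 5 min with compound in 50 mM Tris-HCl pH 8.0, 150 mM NaCl, 0.02% Triton X-100 at 37° C. Tosyl-Gly-Pro-Arg-pNA (320 μM final) added; A405 read after 15 min. Ki from fitting to two-site competitive binding equation.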

Experiment [3] concerns the target T2, Bovine pancreatic Trypsin (Bos taurus, UniProt P00760).
T2 construct: from tissue; host or cells: bovine pancreas
T2 sequence (P00760 24-246): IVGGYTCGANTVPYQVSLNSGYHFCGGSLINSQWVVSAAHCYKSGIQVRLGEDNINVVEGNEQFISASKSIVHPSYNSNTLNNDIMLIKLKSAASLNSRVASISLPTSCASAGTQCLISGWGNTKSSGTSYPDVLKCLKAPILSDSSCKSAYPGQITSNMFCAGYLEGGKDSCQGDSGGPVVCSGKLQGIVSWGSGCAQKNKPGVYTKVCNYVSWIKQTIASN
Nature of the experiment: Ki determination, bovine pancreatic trypsin (N-a-Benzoyl-L-Arg-pNA). The following applies: 50 mM Tris-HCl, pH 8.2, 20 mM CaCl2; read-out: Experimentally Determined Ki, Trypsin. The method, boiled down: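 TPCK-treated bovine trypsin was preincubated with compound for 15 min at 37° C in 50 mM Tris-HCl pH 8.2, 20 mM CaCl2, then N-a-Benzoyl-L-Arg-pNA was added and p-nitroaniline read at 405 nm. Ki came from the tight-binding equation, with [E]o from active-site titration and a substrate correction, or from competitive-inhibitor equations when Ki >>[E]o.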

The target in experiment [4] is r-tissue kallikrein (Homo sapiens, UniProt P06870). Nature of the experiment: Ki determination, r-tissue kallikrein (DL-Val-Leu-Arg-pNA). Conditions: 50 mM Tris-HCl, pH 7.8, 200 mM NaCl, 0.05% BSA; read-out: Experimentally Determined Ki, Tissue Kallikrein. Put shortly: (§1)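 Enzyme preincubated with test compound 15 min at 37° C in 50 mM Tris-HCl pH 7.8, 200 mM NaCl, 0.05% BSA; residual activity read at 405 nm after adding H-D-Prolyl-Phe-Arg-pNA (plasma) or DL-Val-Leu-Arg-pNA (tissue). Ki from tight-binding equation (enzyme active-site titrated) corrected for substrate, or competitive-inhibitor equation when Ki >>[E]o.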
r-tissue kallikrein, sequence (P06870 25-262): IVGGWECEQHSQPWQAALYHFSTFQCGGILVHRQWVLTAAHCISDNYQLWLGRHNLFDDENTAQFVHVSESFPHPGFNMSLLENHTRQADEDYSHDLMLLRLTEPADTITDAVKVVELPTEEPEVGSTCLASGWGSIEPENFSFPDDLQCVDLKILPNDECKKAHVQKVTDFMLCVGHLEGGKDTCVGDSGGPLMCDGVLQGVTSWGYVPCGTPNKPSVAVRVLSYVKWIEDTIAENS

Experiment [5] has as its target T3, Human plasma factor Xa (Homo sapiens, UniProt P00742).
T3 construct: from tissue; host or cells: human plasma
Nature of the experiment: Ki determination, human plasma factor Xa (N-Benzoyl-Ile-Glu-Gly-Arg-pNA). Conditions: 50 mM Tris-HCl, pH 7.8, 200 mM NaCl, 0.05% BSA; read-out: Experimentally Determined Ki, Factor Xa. The method, boiled down:
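Enzyme preincubated with compound 15 min at 37° C in 50 mM Tris-HCl pH 7.8, 200 mM NaCl, 0.05% BSA, then N-Benzoyl-Ile-Glu-Gly-Arg-pNA added and p-nitroaniline read at 405 nm. Ki from tight-binding equation with active-site-titrated enzyme, corrected for substrate, or from competitive-inhibitor equations when Ki >> [E]o.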

For experiment [6], the target named is T4, Human plasma kallikrein (Homo sapiens, UniProt P03952).
T4 construct: from tissue; host or cells: human plasma
T4 sequence (P03952 391-638 limits assumed): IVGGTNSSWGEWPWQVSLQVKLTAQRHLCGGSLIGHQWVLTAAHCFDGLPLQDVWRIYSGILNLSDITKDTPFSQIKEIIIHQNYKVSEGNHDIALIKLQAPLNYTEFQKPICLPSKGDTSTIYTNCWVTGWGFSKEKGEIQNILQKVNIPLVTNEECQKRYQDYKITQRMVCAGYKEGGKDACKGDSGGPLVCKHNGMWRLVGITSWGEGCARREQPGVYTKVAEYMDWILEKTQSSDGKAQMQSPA
T4 sequence (P03952 20-390 partner limits assumed): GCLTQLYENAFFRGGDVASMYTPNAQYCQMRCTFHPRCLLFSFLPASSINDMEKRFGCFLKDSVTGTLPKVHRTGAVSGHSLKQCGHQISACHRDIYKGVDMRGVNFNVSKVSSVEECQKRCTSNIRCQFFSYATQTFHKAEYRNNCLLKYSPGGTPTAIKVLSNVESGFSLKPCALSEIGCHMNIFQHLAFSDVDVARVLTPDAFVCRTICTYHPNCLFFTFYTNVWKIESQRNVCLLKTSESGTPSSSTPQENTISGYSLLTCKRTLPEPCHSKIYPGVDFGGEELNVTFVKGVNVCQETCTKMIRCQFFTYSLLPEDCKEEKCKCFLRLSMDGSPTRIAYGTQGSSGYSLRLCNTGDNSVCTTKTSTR
Nature of the experiment: Ki determination, human plasma kallikrein (H-D-Prolyl-Phe-Arg-pNA). Conditions: 50 mM Tris-HCl, pH 7.8, 200 mM NaCl, 0.05% BSA; read-out: Experimentally Determined Ki, Plasma Kallikrein. The method, boiled down: as §1

T3 sequence (P00742 235-488 limits assumed): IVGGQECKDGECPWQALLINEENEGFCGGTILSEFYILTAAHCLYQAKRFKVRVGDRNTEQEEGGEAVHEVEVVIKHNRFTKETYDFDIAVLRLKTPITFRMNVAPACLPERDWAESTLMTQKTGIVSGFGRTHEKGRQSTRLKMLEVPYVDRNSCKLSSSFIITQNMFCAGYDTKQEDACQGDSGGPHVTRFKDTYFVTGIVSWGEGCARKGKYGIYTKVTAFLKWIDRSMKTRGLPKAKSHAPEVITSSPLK
T3 sequence (P00742 41-179 partner limits assumed): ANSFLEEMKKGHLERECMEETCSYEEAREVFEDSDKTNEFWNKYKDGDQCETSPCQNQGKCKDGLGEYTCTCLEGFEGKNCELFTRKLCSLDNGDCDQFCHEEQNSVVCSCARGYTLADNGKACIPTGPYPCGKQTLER

For the compound `N=C(N)c1ccc(C(=O)NCc2ccc(OCCCOc3ccc(CNC(=O)c4cccc(C(=N)N)c4)cc3)cc2)cc1` [Example 85, 4-Carbamimidoyl-N-[4-(3-{4-[(3-carbamimidoyl-benzoylamino)-methyl]-phenoxy}-propoxy)-benzyl]-benzamide], the inhibition constant (Ki) is > 100 µM in experiment [1]; 0.003 µM in experiment [2]; 1.1 µM in experiment [3]; > 100 µM in experiment [4]; 2.2 µM in experiment [5]; 1.7 µM in experiment [6].

With `N=C(N)c1ccc(C(=O)NCc2ccc(OCCCOc3ccc(CNS(=O)(=O)c4cccc(C(=N)N)c4)cc3)cc2)cc1` [Example 86, 4-Carbamimidoyl-N-[4-(3-{4-[(3-carbamimidoyl-benzenesulfonylamino)-methyl]-phenoxy}-propoxy)-benzyl]-benzamide], the inhibition constant (Ki) in experiment [1] was > 100 µM; in experiment [2], 0.003 µM; in experiment [3] it was 2.1 µM; in experiment [4] it was > 100 µM; in experiment [5], 10 µM; in experiment [6], 1.4 µM.

Turning to `N=C(N)c1ccc(C(=O)NCc2ccc(OCCCOc3ccc(CNC(=O)c4ccc(CN)cc4)cc3)cc2)cc1` [Example 87, N-[4-(3-{4-[(4-Aminomethyl-benzoylamino)-methyl]-phenoxy}-propoxy)-benzyl]-4-carbamimidoyl-benzamide], the Ki in experiment [1] is > 100 µM; in experiment [2], 0.002 µM; in experiment [3] it was 2.8 µM; in experiment [4], > 100 µM; in experiment [5], 19 µM; in experiment [6], 3.5 µM.

In the case of `N=C(N)c1ccc(C(=O)NCc2ccc(OCC3(COc4ccc(CNC(=O)c5ccc(C(=N)N)cc5)cc4)CCC3)cc2)cc1` [Example 93, 1,1-Bis-{4-[(4-carbamimidoyl-benzoyl-amino)-methyl]-phenoxy-methyl}-cyclobutane], the Ki in experiment [1] was > 100 µM; in experiment [2] it was 0.001 µM; in experiment [3], 1.5 µM; in experiment [4], 14 µM; in experiment [5], 15 µM; in experiment [6], 3.9 µM.

Consider `N=C(N)c1ccc2cc(C(=O)NCc3ccc(OCCOc4ccc(CNC(=O)c5ccc6cc(C(=N)N)ccc6c5)cc4)cc3)ccc2c1` [Example 100, 1,2-Bis-{4-[(6-carbamimidoylnaphthalene-2-carbonylamino)-methyl]-phenoxy}-ethane], for which the inhibition constant Ki was 18 µM in experiment [1]; 0.0002 µM in experiment [2]; 0.15 µM in experiment [3]; > 100 µM in experiment [4]; > 100 µM in experiment [5]; > 100 µM in experiment [6].

For the compound `N=C(N)c1ccc2[nH]c(CC(=O)NCc3ccc(OCCCOc4ccc(CNC(=O)Cc5nc6cc(C(=N)N)ccc6[nH]5)cc4)cc3)nc2c1` [Example 107, 2-(5-Carbamimidoyl-1H-benzoimidazol-2-yl)-N-{4,-[3-(4-{2-(5-carbamimidoyl-1H-benzoimidazol-2-yl)acetylaminol-methyl}-phenoxy)-propoxy]-benzyl}-acetamide], the Ki in experiment [1] was 26 µM; in experiment [2] it was 0.012 µM; in experiment [3] it was 4.8 µM; in experiment [4], > 100 µM; in experiment [5] it was 27 µM; in experiment [6], 12 µM.

Take `N=C(N)c1ccc2[nH]c(CC(=O)NCc3ccc(OCCCCCOc4ccc(CNC(=O)Cc5nc6cc(C(=N)N)ccc6[nH]5)cc4)cc3)nc2c1` [Example 108]: the Ki in experiment [1] was > 100 µM; in experiment [2], 0.009 µM; in experiment [3], 3.6 µM; in experiment [4], > 100 µM; in experiment [5], 19 µM; in experiment [6] it was 4.3 µM.

Regarding `N=C(N)c1ccc2[nH]c(CC(=O)NCc3ccc(OCCCCOc4ccc(CNC(=O)Cc5nc6cc(C(=N)N)ccc6[nH]5)cc4)cc3)nc2c1` [Example 109], the Ki in experiment [1] was 14.7 µM; in experiment [2], 0.008 µM; in experiment [3], 11.4 µM; in experiment [4], > 100 µM; in experiment [5], 40 µM; in experiment [6] it was 2.5 µM.

Take `N=C(N)c1ccc2sc(C(=O)NCc3ccc(OCCCOc4ccc(CNC(=O)c5cc6cc(C(=N)N)ccc6s5)cc4)cc3)cc2c1` [Example 117, 1,3-Bis-{4-[(5-carbamidoyl-2-benzthiophenyl-carbamido)-methyl]-phenoxy}-propane]: the Ki in experiment [1] was 40 µM; in experiment [2], 0.012 µM; in experiment [3] it was 13 µM; in experiment [4] it was > 100 µM; in experiment [5], 59 µM; in experiment [6], > 100 µM.
